Our source for the EC50 values is US20080182859A1 (Curis, Inc., priority 2006, published 2008).

Holding throughout (type): cell-based
Experiment [1] relates to sonic hedgehog pathway. Briefly: Human hedgehog reporter assay HEPM-GliLuc (HGL). Conditions: HepM human embryonic palatal mesenchymal cells, Gli-luciferase reporter. An excerpt: (§1) Mouse (TM3: mouse Leydig cells; S12: mouse embryonic mesenchymal cells) and human (Daoy: human medulloblastoma cell; HepM: human embryonic palatal mesenchymal cell) cell lines are used to screen small molecules for their ability to modulate the activity of the sonic hedgehog pathway (Table 1, Table 2, and Table 3). Stable hedgehog pathway reporter cell lines are established by specific antibiotic selection following transfection of a reporter plasmid containing a luciferase gene located directly downstream from the gli promoter. Consequently, any observable changes in cellular luciferase activity may be attributed to changes in sonic hedgehog pathway activity in mouse and human cells, respectively, since gli is the major by-product of this pathway. To calculate activity, we generate an eleven point dose curve for each compound using 1:3 dilutions in 96 well assay plates. Each plate tested also contains low and high control to establish maximal pathway activation so to establish/compare a percentage activation of each tested compound (AMAX) on respective plates. Also we calculate EC50 values, or a concentration where the pathway will be exactly 50% activated, for each tested compound to determine potency. In these cell lines, compounds that register >20% AMAX values are considered active.
(§2) Stable hedgehog pathway reporter cell lines are established following specific antibiotic selection following transfection of a reporter plasmid In short, typically cells are plated in MicroTiter-plates at 10,000-20,000 cells per well, in growth media (containing 10%-20% FBS). After 48-72 hrs (HGL and DGL respectively) the media in the assay plates is switched to low-serum containing media (0.5% FBS). At that time compounds are added (at 1-5 μM) to the assay plates, in the presence or absence of hedgehog protein (octyl-modified version; 1-5 ng/ml). After another 24 hrs of incubation, the media from the assay plates is discarded and replaced with luciferase assay-mix. Subsequently, plates are incubated at RT for ˜15-30 mins and then read in a luminometer. [note: addition of the Hedgehog protein, although not critical, will sensitize the assay allowing the identification of weak actives].
For orientation: A reporter such as luciferase makes a cellular process visible.

In experiment [2] the test system is sonic hedgehog pathway. The experiment can be described thus: Human hedgehog reporter assay Daoy-GliLuc (DGL). Conditions: Daoy human medulloblastoma cells, Gli-luciferase reporter; read-out: Daoy Avg. EC50.
Source text: as §1, §2

For experiment [3], the system named is sonic hedgehog pathway. The experiment can be described thus: Hedgehog pathway Gli-luciferase reporter assay, TM3 cells. The settings on record: TM3 mouse Leydig cells.
Source text: as §1, §2

Counter-ions that a name gives are not always drawn. A value given as a limit tells only on which side of the number the result lay.

Consider `CN[C@H]1CC[C@@H](N(Cc2cc(-c3cncnc3)ccc2OC)C(=O)c2sc3ccccc3c2Cl)CC1` [324 (R20)], for which the values for the EC50 in experiment [1], in experiment [2] and in experiment [3] were 50 to 250 nM, below 50 nM and 50 to 250 nM, respectively.
Turning to `CN[C@H]1CC[C@@H](N(Cc2cc(-c3cnccn3)ccc2OC)C(=O)c2sc3ccccc3c2Cl)CC1` [330 (R22)], the EC50 (usually the concentration that produces a half-maximal response) was 50 to 250 nM in experiment [1], below 50 nM in experiment [2] and 50 to 250 nM in experiment [3].
For `CN[C@H]1CC[C@@H](N(Cc2cc(-c3cncnc3)ccc2OC)C(=O)c2sc3c(F)ccc(F)c3c2Cl)CC1` [343 (R15)], the EC50 in experiment [1], in experiment [2] and in experiment [3] was below 50 nM each time.
Take `CN[C@H]1CC[C@@H](N(Cc2cc(-c3cnccn3)ccc2OC)C(=O)c2sc3c(F)ccc(F)c3c2Cl)CC1` [344 (R14)]: the EC50 in experiment [1], in experiment [2] and in experiment [3] was below 50 nM each time.
As for `CN[C@H]1CC[C@@H](N(Cc2cc(-c3ccc(N)nc3)ccc2OC)C(=O)c2sc3c(F)ccc(F)c3c2Cl)CC1` [352 (R18)], the EC50 in experiment [1], in experiment [2] and in experiment [3] was below 50 nM in each case.
In the case of `CNC(=O)c1cc(-c2ccc(OC)c(CN(C(=O)c3sc4c(F)ccc(F)c4c3Cl)[C@H]3CC[C@@H](NC)CC3)c2)ccn1` [356 (R16)], the EC50 in experiment [1], in experiment [2] and in experiment [3] was below 50 nM throughout.
`CN[C@H]1CC[C@@H](N(Cc2cc(-c3cccc(C#N)c3)ccc2OC)C(=O)c2sc3c(F)ccc(F)c3c2Cl)CC1` [Compound 337, 3-Chloro-4,7-difluoro-benzo[b]thiophene-2-carboxylic acid (3′-cyano-4-methoxy-biphenyl-3-ylmethyl)-(4-methylamino-cyclohexyl)-amide hydrochloride]: the EC50 in experiment [1] and in experiment [3] was below 50 nM each time.
Consider `CCOc1ccc(-c2ccc(C(=O)C(F)(F)F)cc2)cc1CN(C(=O)c1sc2c(F)ccc(F)c2c1Cl)[C@H]1CC[C@@H](NC)CC1` [Compound 341, 3-Chloro-4,7-difluoro-benzo[b]thiophene-2-carboxylic acid [4-ethoxy-4′-(2,2,2-trifluoro-acetyl)-biphenyl-3-ylmethyl]-(4-methylamino-cyclohexyl)-amide trifluoroacetate], for which the EC50 in experiment [1] was 50 to 250 nM; in experiment [3], below 50 nM.
The corresponding values for `CN[C@H]1CC[C@@H](N(Cc2cc(-c3ccc(C#N)cc3)ccc2OC)C(=O)c2sc3c(F)ccc(F)c3c2Cl)CC1` [Compound 351, 3-Chloro-4,7-difluoro-benzo[b]thiophene-2-carboxylic acid (4′-cyano-4-methoxy-biphenyl-3-ylmethyl)-(4-methylamino-cyclohexyl)-amide hydrochloride] are below 50 nM and below 50 nM.
Regarding `CN[C@H]1CC[C@@H](N(Cc2cc(-c3cccc(C(C)=O)c3)ccc2OC)C(=O)c2sc3c(F)ccc(F)c3c2Cl)CC1` [Compound 364, 3-Chloro-4,7-difluoro-benzo[b]thiophene-2-carboxylic acid (3′-acetyl-4-methoxy-biphenyl-3-ylmethyl)-(4-methylamino-cyclohexyl)-amide hydrochloride], the EC50 in experiment [1] and in experiment [3] was below 50 nM in each case.
For `CCOc1ccc(-c2ccc(N)nc2)cc1CN(C(=O)c1sc2ccccc2c1Cl)[C@H]1CC[C@H](NC)CC1` [Compound 396, 3-Chloro-benzo[b]thiophene-2-carboxylic acid [2-ethoxy-5-(6-amino-pyridin-3-yl)-benzyl]-(4-methylamino-cyclohexyl)-amide dihydrochloride], the EC50 in experiment [1] lay in the range of 50 to 250 nM; in experiment [3], 250 to 1000 nM.
Consider `CNc1ccc(-c2ccc(OC)c(CN(C(=O)c3sc4ccccc4c3Cl)[C@H]3CC[C@H](NC)CC3)c2)cn1` [Compound 397, 3-Chloro-benzo[b]thiophene-2-carboxylic acid [2-methoxy-5-(6-methylamino-pyridin-3-yl)-benzyl]-(4-methylamino-cyclohexyl)-amide dihydrochloride], for which the EC50 in experiment [1] and in experiment [3] was 250 to 1000 nM in each case.
Take `CCOc1ccc(-c2cc(C)nc(C)c2)cc1CN(C(=O)c1sc2ccccc2c1Cl)[C@H]1CC[C@H](NC)CC1` [Compound 400, 3-Chloro-benzo[b]thiophene-2-carboxylic acid [5-(2,6-dimethyl-pyridin-4-yl)-2-ethoxy-benzyl]-(4-methylamino-cyclohexyl)-amide dihydrochloride]: the EC50 in experiment [1] and in experiment [3] was 250 to 1000 nM in each case.
With `CCOc1ccc(-c2ccc(N)nc2C)cc1CN(C(=O)c1sc2ccccc2c1Cl)[C@H]1CC[C@H](NC)CC1` [Compound 403, 3-Chloro-benzo[b]thiophene-2-carboxylic acid [5-(6-amino-2-methyl-pyridin-3-yl)-2-ethoxy-benzyl]-(4-methylamino-cyclohexyl)-amide dihydrochloride], the EC50 in experiment [1] fell in the range of 250 to 1000 nM; in experiment [3] it was 1000 to 2500 nM.
For the compound `CCOc1ccc(-c2ccc(N(C)C)nc2)cc1CN(C(=O)c1sc2ccccc2c1Cl)[C@H]1CC[C@H](NC)CC1` [Compound 404, 3-Chloro-benzo[b]thiophene-2-carboxylic acid [5-(6-dimethylamino-pyridin-3-yl)-2-ethoxy-benzyl]-(4-methylamino-cyclohexyl)-amide bis(trifluoroacetate)], the EC50 fell in the range of 250 to 1000 nM in experiment [1] and 1000 to 2500 nM in experiment [3].
Taken in the same sequence, the figures for `CN[C@H]1CC[C@H](N(Cc2cc(-c3ccc(N(C)C)nc3)ccc2OC)C(=O)c2sc3ccccc3c2Cl)CC1` [Compound 405, 3-Chloro-benzo[b]thiophene-2-carboxylic acid [5-(6-dimethylamino-pyridin-3-yl)-2-methoxy-benzyl]-(4-methylamino-cyclohexyl)-amide bis(trifluoroacetate)] were 250 to 1000 nM and 1000 to 2500 nM.
Take `CN[C@H]1CC[C@H](N(Cc2cc(-c3ccc(C)nc3)ccc2OC)C(=O)c2sc3cccc(F)c3c2Cl)CC1` [Compound 406, 3-Chloro-4-fluoro-benzo[b]thiophene-2-carboxylic acid [2-methoxy-5-(6-methyl-pyridin-3-yl)-benzyl]-(4-methylamino-cyclohexyl)-amide dihydrochloride]: the EC50 in experiment [1] is 50 to 250 nM; in experiment [3], below 50 nM.
The corresponding values for `CN[C@H]1CC[C@@H](N(Cc2cc(-c3cc(C)nc(C)c3)ccc2OC)C(=O)c2sc3ccccc3c2Cl)CC1` [Compound R1, 3-Chloro-benzo[b]thiophene-2-carboxylic acid [5-(2,6-dimethyl-pyridin-4-yl)-2-methoxy-benzyl]-(4-methylamino-cyclohexyl)-amide dihydrochloride] are 50 to 250 nM and below 50 nM.
`CCOc1ccc(-c2ccc(C#N)cc2)cc1CN(C(=O)c1sc2ccccc2c1Cl)[C@H]1CC[C@@H](NC)CC1` [Compound R2, 3-Chloro-benzo[b]thiophene-2-carboxylic acid (4′-cyano-4-ethoxy-biphenyl-3-ylmethyl)-(4-methylamino-cyclohexyl)-amide hydrochloride]: the EC50 in experiment [1] and in experiment [3] was 50 to 250 nM each time.
Regarding `CCOc1ccc(-c2ccc(C)nc2)cc1CN(C(=O)c1sc2ccccc2c1Cl)[C@H]1CC[C@@H](NC)CC1` [Compound R4, 3-Chloro-benzo[b]thiophene-2-carboxylic acid [2-ethoxy-5-(6-methyl-pyridin-3-yl)-benzyl]-(4-methylamino-cyclohexyl)-amide dihydrochloride], the EC50 in experiment [1] and in experiment [3] was 50 to 250 nM in each case.
In the case of `CN[C@H]1CC[C@@H](N(Cc2cc(-c3ccnc(C(=O)O)c3)ccc2OC)C(=O)c2sc3c(F)ccc(F)c3c2Cl)CC1` [Compound R6, 4-(3-{[(3-Chloro-4,7-difluoro-benzo[b]thiophene-2-carbonyl)-(4-methylamino-cyclohexyl)-amino]-methyl}-4-methoxy-phenyl)-pyridine-2-carboxylic acid bis(trifluoroacetate)], the EC50 in experiment [1] and in experiment [3] was 50 to 250 nM in each case.
Consider `CN[C@H]1CC[C@@H](N(Cc2cc(-c3ccc(S(C)(=O)=O)cc3)ccc2OC)C(=O)c2sc3ccccc3c2Cl)CC1` [Compound R7, 3-Chloro-benzo[b]thiophene-2-carboxylic acid (4′-methanesulfonyl-4-methoxy-biphenyl-3-ylmethyl)-(4-methylamino-cyclohexyl)-amide hydrochloride], for which the EC50 in experiment [1] and in experiment [3] was below 50 nM in each case.
As for `CN[C@H]1CC[C@@H](N(Cc2cc(-c3ccc(C(N)=O)cc3)ccc2OC)C(=O)c2sc3c(F)ccc(F)c3c2Cl)CC1` [Compound R8, 3-Chloro-4,7-difluoro-benzo[b]thiophene-2-carboxylic acid (4′-carbamoyl-4-methoxy-biphenyl-3-ylmethyl)-(4-methylamino-cyclohexyl)-amide hydrochloride], the EC50 in experiment [1] and in experiment [3] was below 50 nM in each case.
